Results reported in PubChem BioAssay (NCI).
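1) Cells in 96-well plates. 2) Compound, 48 h, 5 concentrations. 3) Linear interpolation between surrounding doses. 4) Unreached endpoint = highest concentration. Here, GI50 denotes the concentration required for 50% inhibition of growth. TGI: total growth inhibition.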

Assays:
Assay in all cases: growth of human tumour cells (NCI), 48 h; in the data active means GI50 below about 0.43 µM; inactive means the rest
786-0 renal = system: 786-0 renal
A498 renal = system: A498 renal
A549 NSCLC = system: A549 NSCLC
ACHN renal = system: ACHN renal
BT-549 breast = system: BT-549 breast
CAKI-1 renal = system: CAKI-1 renal
CCRF-CEM leukemia = system: CCRF-CEM leukemia
COLO 205 colon = system: COLO 205 colon
DU-145 prostate = system: DU-145 prostate
EKVX NSCLC = system: EKVX NSCLC
HCC-2998 colon = system: HCC-2998 colon
HCT-116 colon = system: HCT-116 colon
HCT-15 colon = system: HCT-15 colon
HL-60(TB) leukemia = system: HL-60(TB) leukemia
HOP-62 NSCLC = system: HOP-62 NSCLC
HOP-92 NSCLC = system: HOP-92 NSCLC
HT29 colon = system: HT29 colon
IGROV1 ovarian = system: IGROV1 ovarian
K-562 leukemia = system: K-562 leukemia
KM12 colon = system: KM12 colon
LOX IMVI melanoma = system: LOX IMVI melanoma
M14 melanoma = system: M14 melanoma
MALME-3M melanoma = system: MALME-3M melanoma
MCF7 breast = system: MCF7 breast
MDA-MB-231 breast = system: MDA-MB-231 breast
MDA-MB-435 = system: MDA-MB-435
MOLT-4 leukemia = system: MOLT-4 leukemia
NCI-H226 lung = system: NCI-H226 lung
NCI-H23 lung = system: NCI-H23 lung
NCI-H460 lung = system: NCI-H460 lung
NCI-H522 lung = system: NCI-H522 lung
NCI/ADR-RES ovarian = system: NCI/ADR-RES ovarian
OVCAR-3 ovarian = system: OVCAR-3 ovarian
OVCAR-4 ovarian = system: OVCAR-4 ovarian
OVCAR-5 ovarian = system: OVCAR-5 ovarian
OVCAR-8 ovarian = system: OVCAR-8 ovarian
PC-3 prostate = system: PC-3 prostate
RPMI-8226 leukemia = system: RPMI-8226 leukemia
SF-268 CNS = system: SF-268 CNS
SF-295 CNS = system: SF-295 CNS
SF-539 CNS = system: SF-539 CNS
SK-MEL-2 melanoma = system: SK-MEL-2 melanoma
SK-MEL-5 melanoma = system: SK-MEL-5 melanoma
SK-OV-3 ovarian = system: SK-OV-3 ovarian
SN12C renal = system: SN12C renal
SNB-19 CNS = system: SNB-19 CNS
SNB-75 CNS = system: SNB-75 CNS
SR leukemia = system: SR leukemia
T-47D breast = system: T-47D breast
TK-10 renal = system: TK-10 renal
U251 CNS = system: U251 CNS
UACC-257 melanoma = system: UACC-257 melanoma
UACC-62 melanoma = system: UACC-62 melanoma
UO-31 renal = system: UO-31 renal

COc1cc(C(=O)/C=C/c2c(-c3cccs3)nc3sc(C)cn23)cc(OC)c1OC
20.5 µM: TGI (MCF7 breast)
22.3 µM: TGI (OVCAR-4 ovarian)
12.4 µM: TGI (HCC-2998 colon)
10.4 µM: TGI (SK-OV-3 ovarian)
31.1 µM: TGI (MDA-MB-231 breast)
5.46 µM: TGI (SR leukemia)
3.22 µM: TGI (SK-MEL-5 melanoma)
5.3 µM: TGI (NCI-H460 lung)
15 µM: TGI (MALME-3M melanoma)
19.6 µM: TGI (A549 NSCLC)
4.57 µM: TGI (NCI-H522 lung)
33.9 µM: TGI (NCI/ADR-RES ovarian)
38.2 µM: TGI (786-0 renal)
5.78 µM: TGI (A498 renal)
64.5 µM: TGI (HOP-62 NSCLC)
6.62 µM: TGI (MOLT-4 leukemia)
6.93 µM: TGI (SNB-75 CNS)
inactive: GI50 (786-0 renal) 3.7 µM | GI50 (A498 renal) 1.51 µM | GI50 (A549 NSCLC) 2.69 µM | GI50 (ACHN renal) 5.15 µM | GI50 (BT-549 breast) 3.82 µM | GI50 (CAKI-1 renal) 2.92 µM | GI50 (CCRF-CEM leukemia) 1.93 µM | GI50 (COLO 205 colon) 4.01 µM | GI50 (DU-145 prostate) 2.99 µM | GI50 (EKVX NSCLC) 1.99 µM | GI50 (HCC-2998 colon) 3.87 µM | GI50 (HCT-116 colon) 3.8 µM | GI50 (HCT-15 colon) 3.38 µM | GI50 (HL-60(TB) leukemia) 2.69 µM | GI50 (HOP-62 NSCLC) 5.74 µM | GI50 (HOP-92 NSCLC) 0.47 µM | GI50 (HT29 colon) 3.91 µM | GI50 (IGROV1 ovarian) 2.53 µM | GI50 (K-562 leukemia) 2.07 µM | GI50 (KM12 colon) 2.83 µM | GI50 (LOX IMVI melanoma) 3.84 µM | GI50 (M14 melanoma) 5.59 µM | GI50 (MALME-3M melanoma) 3.19 µM | GI50 (MCF7 breast) 2.35 µM | GI50 (MDA-MB-231 breast) 2.96 µM | GI50 (MDA-MB-435) 2.68 µM | GI50 (MOLT-4 leukemia) 1.27 µM | GI50 (NCI-H226 lung) 4.6 µM | GI50 (NCI-H23 lung) 4.97 µM | GI50 (NCI-H460 lung) 1.87 µM | GI50 (NCI-H522 lung) 1.36 µM | GI50 (NCI/ADR-RES ovarian) 2.1 µM | GI50 (OVCAR-3 ovarian) 2.8 µM | GI50 (OVCAR-4 ovarian) 2.85 µM | GI50 (OVCAR-5 ovarian) 82 µM | GI50 (OVCAR-8 ovarian) 1.21 µM | GI50 (PC-3 prostate) 2.8 µM | GI50 (RPMI-8226 leukemia) 1.67 µM | GI50 (SF-268 CNS) 3.84 µM | GI50 (SF-295 CNS) 3.69 µM | GI50 (SF-539 CNS) 2.12 µM | GI50 (SK-MEL-2 melanoma) 2.73 µM | GI50 (SK-MEL-5 melanoma) 0.948 µM | GI50 (SK-OV-3 ovarian) 3.37 µM | GI50 (SN12C renal) 5.29 µM | GI50 (SNB-19 CNS) 2.91 µM | GI50 (SNB-75 CNS) 2.49 µM | GI50 (SR leukemia) 1.12 µM | GI50 (T-47D breast) 1.77 µM | GI50 (TK-10 renal) 6.16 µM | GI50 (U251 CNS) 3.72 µM | GI50 (UACC-257 melanoma) 3.86 µM | GI50 (UACC-62 melanoma) 2.52 µM | GI50 (UO-31 renal) 1.84 µM
66 µM: TGI (UACC-257 melanoma)
18.7 µM: TGI (OVCAR-3 ovarian)
6.35 µM: TGI (IGROV1 ovarian)
54.8 µM: TGI (NCI-H226 lung)
15.6 µM: TGI (RPMI-8226 leukemia)
8.31 µM: TGI (OVCAR-8 ovarian) | TGI (SK-MEL-2 melanoma)
5.17 µM: TGI (SF-539 CNS)
31.6 µM: TGI (MDA-MB-435)
> 100 µM: TGI (ACHN renal) | TGI (CAKI-1 renal) | TGI (CCRF-CEM leukemia) | TGI (COLO 205 colon) | TGI (EKVX NSCLC) | TGI (HCT-116 colon) | TGI (HCT-15 colon) | TGI (HL-60(TB) leukemia) | TGI (HT29 colon) | TGI (K-562 leukemia) | TGI (KM12 colon) | TGI (LOX IMVI melanoma) | TGI (M14 melanoma) | TGI (NCI-H23 lung) | TGI (OVCAR-5 ovarian) | TGI (PC-3 prostate) | TGI (SF-268 CNS) | TGI (SF-295 CNS) | TGI (SN12C renal) | TGI (TK-10 renal) | TGI (U251 CNS)
39.9 µM: TGI (BT-549 breast)
14 µM: TGI (DU-145 prostate)
4.93 µM: TGI (HOP-92 NSCLC)
13.3 µM: TGI (SNB-19 CNS)
19.9 µM: TGI (UACC-62 melanoma)
7.97 µM: TGI (UO-31 renal)
7.65 µM: TGI (T-47D breast)
